US4590270A, “2,4-diamino-[4-piperidinyl]pyrimidines useful as antibacterial agents, antimalarial agents, antitumors agents” (Hoffmann-La Roche Inc., priority 1983, dated 1986)
In brackets after ≈: the same amount, converted by molar mass. Where two headings read alike, the source gives them in different places.

Experiments:
[1] = target: dihydrofolate reductase from E. coli (Escherichia coli, UniProt P0ABQ4); test: inhibition of dihydrofolate reductase from E. coli; format: biochemical
[2] = test system: Bacteroides fragilis strains; test: in vitro minimum inhibitory concentration against Bacteroides fragilis strains; format: cell-based
Procedure: (§1) In the case of in vitro experiments an minimum inhibitory concentration of 0.1-1.6 μg/ml has been determined for compound A against Bacteroides fragilis strains. […] In comparison to this, values of 79 and 45 μg/l, respectively, were determined for the known pyrimethamine.

P. falciparum = test: in vitro activity against malaria pathogen P. falciparum; format: cell-based; details: Plasmodium falciparum
Procedure: as §1

[3] = P. falciparum strain 13, read-out: ID50 (the source's name)
[4] = P. falciparum strain T9, read-out: ID50 (the source's name)

| SMILES | IC50 [1] | MIC [2] | IC50 (P. falciparum; [3]) | IC50 (P. falciparum; [4]) |
| --- | --- | --- | --- | --- |
| COc1cc(OC)cc(N2[C@@H]3CC[C@H]2C[C@H](c2cnc(N)nc2N)C3)c1 [compound A, exo-2,4-diamino-5-[8-(3,5-dimethoxyphenyl)-8-azabicyclo[3.2.1]oct-3-yl]pyrimidine] | 3.3 nM | 0.1 to 1.6 µg/mL (≈ 0.281 to 4.5 µM) | 0.0009 µg/mL (≈ 0.00253 µM) | 0.0014 µg/mL (≈ 0.00394 µM) |
| CCc1nc(N)nc(N)c1-c1ccc(Cl)cc1 [pyrimethamine, reference compound] | – | – | 0.045 µg/mL (≈ 0.181 µM) | 0.079 µg/mL (≈ 0.318 µM) |
